The nature of series [1]: Electron mobility of TC-PDA-F in an OTFT versus time of exposure to air (air-stability, FIG. 3). The series is classed as physicochemical. To be noted: OTFT thin film. The source says:
Refer to FIG. 1 and FIG. 2 for diagrams respectively schematically showing a BG-TC (Bottom Gate-Top Contact) OTFT and a BG-BC (Bottom Gate-Bottom Contact) OTFT. The BG-TC OTFT 10 has a substrate 11, a gate 12 formed on the substrate 11, a dielectric layer 13 formed on the gate 12, a source 14 and a drain 15 formed over the dielectric layer 13, and an organic semiconductor layer 16 for conducting the source 14 and the drain 15. The BG-BC OTFT 20 has a substrate 21, a gate 22 formed on the substrate 21, a dielectric layer 23 formed on the gate 22, a source 24 and a drain 25 formed on the dielectric layer 23, and an organic semiconductor layer 26 for conducting the source 24 and the drain 25. In one embodiment, the organic semiconductor layers 16 and 26 are fabricated with a soluble process in the atmospheric environment. In one embodiment, the dielectric layers 13 and 23 respectively formed on the substrates 11 and 21 also are fabricated with a soluble process. For example, a liquid-phase deposited silicon dioxide (LPD-SiO2) is formed on a silicon substrate 11 or 21 to function as the dielectric layer 13 or 23, whereby the electron mobility thereof can reach 0.26 cm^2V^−1s^−1. Refer to FIG. 3 for a diagram showing the relationship of the electron mobility of TC-PDA-F and the time of exposure to air.

The nature of series [2]: Solubility in organic solution. In kind it is physicochemical. The note with it: organic solution (such as toluene).

SMILES strings stand for the structures.

Regarding `O=C1c2cc(Cl)c3c4c(Cl)cc5c6c(cc(Cl)c(c7c(Cl)cc(c2c37)C(=O)N1Cc1cc(F)cc(C(F)(F)F)c1)c64)C(=O)N(Cc1cc(F)cc(C(F)(F)F)c1)C5=O` [TC-PDA-F], the electron mobility is given as 1.6×10^−5 cm^2V^−1s^−1 in series [1] (after exposure to air for two months (FIG. 3)) and 5.34×10^−5 cm^2V^−1s^−1 in series [1] (before exposure to air (FIG. 3)). Also, in series [2], the “solubility in organic solution” value is on record as “can be dissolved”.
